Values quoted from earlier work, collected in US5349105A, “Alkyl, alkoxy and thioalkoxy substituted diphenyl acetylenes having retinoid like activity” (Allergan, Inc., priority 1993, dated 1994).

System: ornithine decarboxylase (ODC)
Conditions: literature background

| SMILES | induction of ODC activity (in words) (TPA as inducer) | inhibition of induction of ODC activity by TPA (in words) (retinoic acid) |
| --- | --- | --- |
| CCCCCCCCCCCCCC(=O)O[C@@H]1[C@@H](C)[C@@]2(O)[C@@H](C=C(CO)C[C@]3(O)C(=O)C(C)=C[C@@H]23)[C@@H]2C(C)(C)[C@]12OC(C)=O [12-0-tetradecanoyl-phorbol-13-acetate] | induces ODC activity | – |
| CC1=C(/C=C/C(C)=C/C=C/C(C)=C/C(=O)O)C(C)(C)CCC1 [Retinoic acid] | – | inhibits this induction of ODC activity by TPA |
